Measurements as given in ChEMBL document CHEMBL1201862, “PubChem BioAssay data set” (2004).
Active and inactive are the calls of the source.

How the values were obtained:
[1] = biological target: T1, Sentrin-specific protease 6 (Homo sapiens, UniProt Q9GZR1); type: functional;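 note: Luminescence-based dose-response confirmatory assay of SENP6 inhibition, following up an ultra-high-throughput screen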
T1 sequence (Q9GZR1 whole entry): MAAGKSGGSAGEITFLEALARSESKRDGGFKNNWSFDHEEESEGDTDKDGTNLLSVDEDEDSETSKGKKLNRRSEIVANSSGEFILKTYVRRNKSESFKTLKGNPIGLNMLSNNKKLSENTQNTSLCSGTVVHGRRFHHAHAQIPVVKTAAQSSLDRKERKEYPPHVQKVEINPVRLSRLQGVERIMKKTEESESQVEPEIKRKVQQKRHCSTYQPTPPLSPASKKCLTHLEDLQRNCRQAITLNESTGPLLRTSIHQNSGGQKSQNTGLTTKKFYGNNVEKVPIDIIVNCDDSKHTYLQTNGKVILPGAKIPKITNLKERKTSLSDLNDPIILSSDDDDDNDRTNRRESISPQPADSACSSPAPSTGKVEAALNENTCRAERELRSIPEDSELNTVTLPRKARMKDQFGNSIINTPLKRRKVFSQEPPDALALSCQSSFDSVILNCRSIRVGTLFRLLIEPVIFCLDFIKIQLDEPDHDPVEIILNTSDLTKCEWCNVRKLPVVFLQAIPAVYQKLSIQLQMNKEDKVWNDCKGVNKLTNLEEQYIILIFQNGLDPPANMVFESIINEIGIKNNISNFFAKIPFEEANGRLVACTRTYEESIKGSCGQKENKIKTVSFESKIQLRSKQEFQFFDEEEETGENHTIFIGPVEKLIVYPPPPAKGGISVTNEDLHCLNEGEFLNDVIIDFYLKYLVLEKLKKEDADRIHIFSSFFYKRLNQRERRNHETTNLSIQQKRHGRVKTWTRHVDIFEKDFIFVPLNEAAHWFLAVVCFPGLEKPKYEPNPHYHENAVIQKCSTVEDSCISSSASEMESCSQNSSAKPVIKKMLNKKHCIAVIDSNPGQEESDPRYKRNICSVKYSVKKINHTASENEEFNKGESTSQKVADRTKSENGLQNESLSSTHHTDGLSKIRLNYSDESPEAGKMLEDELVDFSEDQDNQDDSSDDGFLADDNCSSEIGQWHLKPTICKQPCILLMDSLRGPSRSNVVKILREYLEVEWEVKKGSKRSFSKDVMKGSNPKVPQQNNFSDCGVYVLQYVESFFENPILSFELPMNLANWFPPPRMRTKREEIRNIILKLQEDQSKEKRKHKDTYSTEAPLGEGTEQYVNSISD

Caspase-3 = biological target: T2, Caspase-3 (Homo sapiens, UniProt P42574); type: functional;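 note: Dose-response selectivity test against caspase-3 for candidate inhibitors of sentrin-specific proteases (SENPs)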
T2 sequence (P42574 whole entry): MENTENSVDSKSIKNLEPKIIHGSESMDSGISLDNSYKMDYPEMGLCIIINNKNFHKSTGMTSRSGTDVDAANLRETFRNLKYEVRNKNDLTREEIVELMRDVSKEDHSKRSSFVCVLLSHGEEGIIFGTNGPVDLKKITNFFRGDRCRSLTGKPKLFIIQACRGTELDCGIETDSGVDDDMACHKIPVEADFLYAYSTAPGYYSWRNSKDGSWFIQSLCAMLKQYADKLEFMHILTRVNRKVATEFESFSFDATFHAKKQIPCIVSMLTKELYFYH

[2] = biological target: T3, Sentrin-specific protease 7 (Homo sapiens, UniProt Q9BQF6); type: functional;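 note: Luminescence-based dose-response confirmation of ultra-high-throughput screening hits, measuring inhibition of SENP7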
T3 sequence (Q9BQF6 whole entry): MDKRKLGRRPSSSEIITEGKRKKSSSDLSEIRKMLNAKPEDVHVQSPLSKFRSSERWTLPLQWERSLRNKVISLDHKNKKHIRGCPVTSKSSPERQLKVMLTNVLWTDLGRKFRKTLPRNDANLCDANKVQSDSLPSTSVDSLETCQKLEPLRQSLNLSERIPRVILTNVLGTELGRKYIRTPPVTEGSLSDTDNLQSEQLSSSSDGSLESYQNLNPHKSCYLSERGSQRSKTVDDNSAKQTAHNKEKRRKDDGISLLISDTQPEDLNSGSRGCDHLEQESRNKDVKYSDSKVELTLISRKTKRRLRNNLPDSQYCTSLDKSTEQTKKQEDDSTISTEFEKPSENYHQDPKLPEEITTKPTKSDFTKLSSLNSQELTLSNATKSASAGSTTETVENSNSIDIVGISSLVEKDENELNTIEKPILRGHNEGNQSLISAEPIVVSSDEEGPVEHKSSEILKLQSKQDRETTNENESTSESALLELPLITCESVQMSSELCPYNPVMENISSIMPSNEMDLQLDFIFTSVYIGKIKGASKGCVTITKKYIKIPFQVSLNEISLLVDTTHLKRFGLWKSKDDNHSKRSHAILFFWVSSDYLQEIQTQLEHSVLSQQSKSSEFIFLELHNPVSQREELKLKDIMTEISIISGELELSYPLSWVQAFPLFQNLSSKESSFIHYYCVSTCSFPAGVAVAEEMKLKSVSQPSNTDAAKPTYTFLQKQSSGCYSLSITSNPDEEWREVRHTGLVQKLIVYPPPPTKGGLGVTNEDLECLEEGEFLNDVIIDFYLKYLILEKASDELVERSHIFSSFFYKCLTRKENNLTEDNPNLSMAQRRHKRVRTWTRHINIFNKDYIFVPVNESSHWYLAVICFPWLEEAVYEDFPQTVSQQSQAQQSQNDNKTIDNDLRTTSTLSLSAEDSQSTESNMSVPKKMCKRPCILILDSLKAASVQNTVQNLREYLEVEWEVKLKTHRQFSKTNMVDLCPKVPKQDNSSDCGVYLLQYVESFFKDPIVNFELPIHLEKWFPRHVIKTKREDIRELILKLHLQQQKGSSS

[3] = biological target: T4, Sentrin-specific protease 8 (Homo sapiens, UniProt Q96LD8); type: functional;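 note: luminescence read-out of SENP8 inhibition, dose-response confirmation following an ultra-high-throughput screen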
T4 sequence (Q96LD8 whole entry): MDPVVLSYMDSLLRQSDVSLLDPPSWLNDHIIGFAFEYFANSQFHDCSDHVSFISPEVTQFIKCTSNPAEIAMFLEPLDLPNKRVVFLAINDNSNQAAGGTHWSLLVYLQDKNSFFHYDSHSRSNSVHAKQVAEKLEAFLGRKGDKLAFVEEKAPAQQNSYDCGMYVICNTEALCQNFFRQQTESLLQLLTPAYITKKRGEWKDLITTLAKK

Escherichia coli = assay: microbe, parasite or virus in culture
[4] = biological target: T5, Heat shock factor protein 1 (Mus musculus, UniProt P38532); assay: enhancement of HSF1-driven luciferase signal – cell-based, NIH3T3, luminescence, dose retest, confirmation (AID 435004); type: functional;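 note: stress induced by proteasome inhibitor MG132 added 30 min after compound; luciferase reporter driven by HSF1 response element in NIH3T3 cells; actives raise luminescence as potentiators of the MG132 stress response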
T5 sequence (P38532 whole entry): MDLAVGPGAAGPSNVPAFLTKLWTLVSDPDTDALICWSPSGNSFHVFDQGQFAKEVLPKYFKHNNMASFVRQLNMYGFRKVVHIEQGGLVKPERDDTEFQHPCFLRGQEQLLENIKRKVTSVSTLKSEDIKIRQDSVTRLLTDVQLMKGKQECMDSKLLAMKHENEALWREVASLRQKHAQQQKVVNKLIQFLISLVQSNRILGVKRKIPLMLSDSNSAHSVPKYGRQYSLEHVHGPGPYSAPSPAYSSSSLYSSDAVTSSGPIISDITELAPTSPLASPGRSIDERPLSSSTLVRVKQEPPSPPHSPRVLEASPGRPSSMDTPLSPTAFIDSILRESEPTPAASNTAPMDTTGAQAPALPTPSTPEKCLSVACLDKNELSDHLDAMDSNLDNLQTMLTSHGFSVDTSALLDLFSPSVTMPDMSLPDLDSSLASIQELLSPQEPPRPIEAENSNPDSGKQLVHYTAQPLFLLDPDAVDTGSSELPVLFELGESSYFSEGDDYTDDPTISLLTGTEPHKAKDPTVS

Cytochrome P450 2D6 = Cytochrome P450 2D6 (Homo sapiens, UniProt P10635);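 note: CYP2D6 member of a cytochrome P450 panel assay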
Cytochrome P450 2D6, sequence (P10635 whole entry): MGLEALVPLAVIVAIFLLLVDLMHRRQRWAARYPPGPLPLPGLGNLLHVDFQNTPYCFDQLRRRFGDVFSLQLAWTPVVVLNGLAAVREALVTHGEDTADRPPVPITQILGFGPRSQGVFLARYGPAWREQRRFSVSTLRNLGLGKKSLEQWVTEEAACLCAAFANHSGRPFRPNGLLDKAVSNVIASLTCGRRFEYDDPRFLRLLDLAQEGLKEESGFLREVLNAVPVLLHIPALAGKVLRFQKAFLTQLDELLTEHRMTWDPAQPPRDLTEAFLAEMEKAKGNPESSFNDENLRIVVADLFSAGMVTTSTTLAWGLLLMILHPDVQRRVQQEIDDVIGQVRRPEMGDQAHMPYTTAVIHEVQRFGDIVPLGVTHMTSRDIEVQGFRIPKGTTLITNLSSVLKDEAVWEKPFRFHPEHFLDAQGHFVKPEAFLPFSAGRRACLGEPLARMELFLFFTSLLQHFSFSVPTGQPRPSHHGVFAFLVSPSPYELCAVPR

[5] = biological target: Glucose-6-phosphate 1-dehydrogenase (Homo sapiens, UniProt P11413); assay: inhibition of Homo sapiens G6PD, dose series – biochemical, fluorescence, selectivity assay for P. falciparum G6PD inhibitor project, dose response (AID 504792); type: functional
Glucose-6-phosphate 1-dehydrogenase, sequence (P11413 whole entry): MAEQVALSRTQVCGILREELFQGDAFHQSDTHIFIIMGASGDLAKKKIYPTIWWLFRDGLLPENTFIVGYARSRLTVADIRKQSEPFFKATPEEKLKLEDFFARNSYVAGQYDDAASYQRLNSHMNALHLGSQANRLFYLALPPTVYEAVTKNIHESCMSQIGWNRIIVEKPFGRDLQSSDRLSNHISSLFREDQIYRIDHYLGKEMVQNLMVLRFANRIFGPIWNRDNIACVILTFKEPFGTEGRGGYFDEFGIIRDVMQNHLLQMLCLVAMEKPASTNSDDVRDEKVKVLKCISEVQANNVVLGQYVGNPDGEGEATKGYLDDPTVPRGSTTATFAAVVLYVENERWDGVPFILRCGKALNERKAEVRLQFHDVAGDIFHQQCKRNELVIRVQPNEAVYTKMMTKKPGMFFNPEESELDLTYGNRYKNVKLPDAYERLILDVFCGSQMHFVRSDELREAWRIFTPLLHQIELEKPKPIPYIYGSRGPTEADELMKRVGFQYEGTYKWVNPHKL

Protein RecA = biological target: T6, Protein RecA (Mycobacterium tuberculosis, UniProt P9WHJ3); assay: Fluorescence Cell-Free Homogeneous Dose Retest to Identify Inhibitors of RecA-Intein Splicing Activity. [Related pubchem assays (depositor defined):AID2097, AID2223, AID489010, AID492950]; type: functional
T6 sequence (P9WHJ3 whole entry): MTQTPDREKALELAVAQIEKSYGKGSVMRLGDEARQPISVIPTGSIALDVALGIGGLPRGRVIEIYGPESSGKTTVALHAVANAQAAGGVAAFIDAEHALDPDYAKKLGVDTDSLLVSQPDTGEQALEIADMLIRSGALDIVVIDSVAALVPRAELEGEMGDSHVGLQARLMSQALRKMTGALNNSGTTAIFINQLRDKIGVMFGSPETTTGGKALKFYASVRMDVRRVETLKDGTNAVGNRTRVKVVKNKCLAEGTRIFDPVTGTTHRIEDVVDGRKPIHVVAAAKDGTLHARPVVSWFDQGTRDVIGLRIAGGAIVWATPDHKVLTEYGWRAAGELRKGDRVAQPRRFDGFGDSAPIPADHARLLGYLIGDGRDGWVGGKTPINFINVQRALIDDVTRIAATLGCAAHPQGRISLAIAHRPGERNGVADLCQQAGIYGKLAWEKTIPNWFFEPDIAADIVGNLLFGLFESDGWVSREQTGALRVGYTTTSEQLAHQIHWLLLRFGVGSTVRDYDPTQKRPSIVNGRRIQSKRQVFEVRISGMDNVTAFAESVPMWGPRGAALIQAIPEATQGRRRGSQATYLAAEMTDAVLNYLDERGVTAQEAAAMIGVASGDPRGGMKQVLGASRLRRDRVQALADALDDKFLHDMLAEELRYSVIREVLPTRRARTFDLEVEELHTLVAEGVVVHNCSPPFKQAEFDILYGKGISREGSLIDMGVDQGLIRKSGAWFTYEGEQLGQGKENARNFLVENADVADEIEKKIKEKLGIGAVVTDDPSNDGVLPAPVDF

[6] = biological target: T7, Replicative DNA helicase DnaB (Mycobacterium tuberculosis, UniProt P9WMR3); assay: DnaB intein splicing inhibitors, dose response, biochemical, cell-free fluorescence (AID 449749); type: functional
T7 sequence (P9WMR3 whole entry): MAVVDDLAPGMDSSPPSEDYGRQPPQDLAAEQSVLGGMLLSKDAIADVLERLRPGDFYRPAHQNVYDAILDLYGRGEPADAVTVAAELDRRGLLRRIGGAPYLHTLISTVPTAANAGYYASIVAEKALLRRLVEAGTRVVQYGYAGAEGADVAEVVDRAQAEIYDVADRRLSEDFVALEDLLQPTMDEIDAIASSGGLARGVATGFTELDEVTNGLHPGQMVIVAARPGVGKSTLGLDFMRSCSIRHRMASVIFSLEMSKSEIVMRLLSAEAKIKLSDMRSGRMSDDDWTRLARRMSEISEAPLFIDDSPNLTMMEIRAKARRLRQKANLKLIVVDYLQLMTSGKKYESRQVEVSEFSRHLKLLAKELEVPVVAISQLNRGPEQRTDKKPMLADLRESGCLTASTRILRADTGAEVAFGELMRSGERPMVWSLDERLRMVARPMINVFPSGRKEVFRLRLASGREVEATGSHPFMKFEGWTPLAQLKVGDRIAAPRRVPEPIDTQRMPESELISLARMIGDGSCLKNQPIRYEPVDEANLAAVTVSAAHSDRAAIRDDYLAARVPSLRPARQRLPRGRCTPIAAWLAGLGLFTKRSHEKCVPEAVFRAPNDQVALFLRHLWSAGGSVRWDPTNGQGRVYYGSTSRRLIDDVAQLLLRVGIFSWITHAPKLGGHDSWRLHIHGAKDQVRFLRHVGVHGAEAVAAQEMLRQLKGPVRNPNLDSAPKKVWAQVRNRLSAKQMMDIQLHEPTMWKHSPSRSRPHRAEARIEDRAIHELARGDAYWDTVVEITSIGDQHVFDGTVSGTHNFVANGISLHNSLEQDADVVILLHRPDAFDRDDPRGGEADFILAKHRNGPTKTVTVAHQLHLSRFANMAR

[7] = viability of HCT116 lacking mutant beta-catenin – cell-based, human colon tumor, dose response (AID 1045); type: functional;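 note: HCT116 colon tumor cells with beta catenin knocked out; cells exposed to compound for 60 hours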
[8] = viability of PTEN-deleted HCT116 cells – cell-based, HCT116 PTEN knockout, dose response (AID 1047); type: functional;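 note: HCT116 colon tumor cells with PTEN knocked out; cells exposed to compound for 60 hours before readout; potency for loss of cell viability measured by luminescence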

Row | SMILES | IC50 [1] | IC50 (Caspase-3) | IC50 [2] | IC50 [3] | AC50 (Escherichia coli) | other results
1 | CSc1ccccc1NC(=O)c1cc(C2CC2)on1 | 30.7 µM (active) | 18.6 µM (active) | 10.1 µM (active) | 33.3 µM (active) |  | 
2 | O=C(Nc1ccc(Cl)c(C(F)(F)F)c1)NC1CC2CCCC(C1)N2C1CC1 (stereo not drawn) |  |  |  |  | 25.7 µM (active) | 
3 | CC(NC(=O)CSc1nc2sc3c(c2c(=O)n1-c1ccccc1)CCCC3)c1ccccc1 (stereo not drawn) |  |  |  |  | 107 µM (active) | 
4 | COc1ccc(/C(C)=N/OCC(=O)Nc2nc3ccccc3s2)cc1OC | 36.1 µM (active) | 49.3 µM (active) | 9.91 µM (active) | 62.2 µM (active) |  | 
5 | CCOC(=O)Nc1ccc(C(=O)Oc2ccccc2)c(O)c1 | 47.6 µM (active) | 61.3 µM (active) | 11.6 µM (active) | 79.9 µM (active) |  | EC50 [4]: 49.2 µM (active); AC50 (Cytochrome P450 2D6): 25.1 µM (inconclusive)
6 | CCNc1ccccc1CP(=O)(c1ccccc1)c1ccccc1O (stereo not drawn) |  |  |  |  |  | IC50 [5]: 42.6 µM (inactive); EC50 (Protein RecA): 1.25 µM (active); AC50 [6]: 10.4 µM (active)
7 | O=C(c1cccnc1)C1CCCN(Cc2nc(Cc3ccccc3)no2)C1 (stereo not drawn) |  |  |  |  | 42 µM (active) | 
8 | CCOc1ccccc1NC(=O)Nc1ccc2c(c1)CCC2 | 9.82 µM (active) | 30.8 µM (active) | 5.64 µM (active) | 9.29 µM (active) |  | 
9 | Cc1ccc(-c2nc3ccccc3s2)cc1NC(=S)NC(=O)c1cccc2ccccc12 |  |  |  |  | 36.4 µM (active) | EC50 [7]: 12.1 µM (active); EC50 [8]: 14.1 µM (active)
10 | Oc1nc(N2CCCCC2)nc2c1CCCC2 |  |  |  |  | 24.9 µM (active) | 
